Data reported in patent EP1301165B1, “USE OF AN ALLOMELANIN FOR THE TREATMENT OF INFLAMMATION OR IRRITANCY CAUSED BY DHA AND/OR A SURFACTANT” (Croda Chemicals International Limited, priority 2000, dated 2002).

Legend:
[1] = Fragrance stabilisation test (eau de toilette, daily 37°C / 4°C / sunlight cycle for 7 days, aroma assessed); details: daily cycle repeated for 7 days
Procedure: To test the stability of a fragrance in the form of an eau de toilette ("EDT"), we use aliquots of the EDT to which are added two or more concentrations of our melanin ("EDT'') and, as reference examples, two concentrations of BHT (butyrated hydroxytoluene, a known antioxidant used in cosmetics). A further aliquot of the original eau de toilette is used as a control. Test samples are made in clear glass bottles that are half filled with the test samples. This is to allow some penetration of UV light and sufficient gas in the headspace to allow oxidative deterioration of the fragrance to occur.
Samples are stored at 37°C overnight, then are cooled to 4°C and then allowed to stand in direct sunlight, for the rest of the day, being returned to 37°C. In addition bottles are opened before and after the 37°C incubation. This daily cycle is repeated for 7 days and the aromas of each assessed.

Water solubility = format: physicochemical
Source text: In contrast, conventional melanins are virtually insoluble. Our melanin derived from caffeic acid has a solubility of about 220g/l. Since caffeic acid has a solubility of below 1g/l, and polymerisation generally leads to a reduction in solubility, this is quite remarkable.

skin = assay: Surfactant sensitivity: skin irritation by 24 hour SLES patch, skin colour by Chroma Meter; format: in vivo, human
Procedure: The effectiveness of our melanin in reducing skin irritation due to a surfactant was investigated. Two human subjects were used. The effect of applying to skin for 24 hours a patch containing a 70% solution of sodium lauryl ether sulphate ('SLES') was compared with the effect of applying an identical patch also containing 0.3% of our melanin ('M'). The colour of the treated skin was monitored for several days using a Chroma Meter. The changes in degrees of redness are tabulated below.

Cc1cc(C(C)(C)C)c(O)c(C(C)(C)C)c1 [BHT, butyrated hydroxytoluene]
fragrance stability (aroma) [1]: markedly superior to the control

O=C(O)/C=C/c1ccc(O)c(O)c1 [caffeic acid]
solubility (Water solubility): < 1000 µg/mL

sodium lauryl ether sulphate [SLES]
Redness Change (skin; Subject 1, Day 1, patch applied for 24 hours): +6.3
Redness Change (skin; Subject 1, Day 2): +4.2
Redness Change (skin; Subject 1, Day 6): +0.3
Redness Change (skin; Subject 2, Day 1, patch applied for 24 hours): +3.5
Redness Change (skin; Subject 2, Day 2): +2.3
Redness Change (skin; Subject 2, Day 7): +0.6
